Results on three compounds are retold here after US7063946B2, “Methods, reagents, kits and apparatus for protein function analysis” (Meso Scale Technologies, LLC., priority 2001, dated 2006).

pIC50: −log10 of the molar value. Where a SMILES comes first, the peptide text is derived from it.

Test [1] relates to N-end rule pathway ubiquitylation in reticulocyte lysate. Description: ECL ubiquitylation assay using Sulfo-TAG-labeled streptavidin and IPR plate coated with FK2 antibody. It is filed as biochemical, rabbit. Conditions: RGS4 plasmid; for fold reduction of the RGS4 ECL signal in the presence of dipeptide inhibitor: 1 mM dipeptide; for IPR readings, Experiment 1 / IPR readings, Experiment 2: 1 mM dipeptide inhibitor with 50 μM bestatin. As to the method: Binding Buffer 2 (BB2) refers to 25 mM Tris-HCl buffer pH 7.4 containing 100 mM NaCl, 0.05 mM Na3VO4, 0.004% TritonX-100, 2 mM DTT and protease inhibitors (protease inhibitor cocktail, EDTA free, Roche Applied Science). Proteins were produced by coupled transcription/translation using TnT reaction mixes (Promega Corp, WI). The TNT Quick coupled transcription-translation system (Promega) contains rabbit reticulocyte lysate pre-mixed with most of the reaction components necessary to carry out transcription and translation in vitro (TNT mix), including all the amino acids except methionine. Unless otherwise noted, biotin-labeled in vitro translated proteins were produced in reaction mixtures that contained 8–30 μg/ml of a selected plasmid encoding protein of interest, 5 μl of TNT T7 Quick reticulocyte lysate mix (Promega Corp, WI) or TnT SP6 Quick Coupled Transcription/Translation System (Promega Corp, WI), 20 μM methionine, 50 μM MG-132 (Calbiochem, proteasome inhibitor to inhibit degradation of ubiquitylated proteins by proteasome) and 20 μg/ml biotinylated Lys-tRNA (transcend tRNA, Promega). The reactions were allowed to proceed for 20–90 min at 30° C. The reactions were stopped by the addition of BB1 supplemented with 20 mM AMP-PNP (Sigma, a non-hydrolyzable ATP analog), 20 mM N-ethylmaleimide (Sigma, an irreversible inhibitor of deubiquitylating enzymes) or, alternatively, by the addition of BB2. BB1 was used in screens involving the ubiquitination pathway. BB2 was used for other assay formats. The produced proteins were used in the assays of interest with or without further purification.
Transcription-translation reaction mixtures were prepared as described in the Example 1 except that no labeled ubiquitin was added. Some reactions also contained 1 mM dipeptide inhibitor of the N-end rule pathway (either Arg-β-Ala, or Trp-Ala) together with 50 μM bestatin as indicated (Table 2). The reaction was allowed to proceed for 20 min at 30° C. Then 1 μl of the reaction was mixed with 50 μl of BB1 supplemented with 20 mM AMP-PNP, 20 mM N-ethylmaleimide, and 2 μg/ml Sulfo-TAG-labeled streptavidin in a well of an IPR plate coated with an anti-ubiquitin antibody (FK2 antibody, Affiniti). […] In a typical assay the presence of RGS4-encoding plasmid produced a 30–100 fold higher ECL signal compared to the empty vector (FIG. 2, Table 2). This signal was reduced 3–4 fold in the presence of Arg-β-Ala (a type 1 inhibitor of the N-end rule pathway), but not in the presence of Trp-Ala (a type 2 inhibitor of the N-end rule pathway) in agreement with the previous report that RGS4 is a type 1 N-end rule substrate in reticulocyte lysates (Davydov and Varshavsky, 2000, J. Biol. Chem., 275:22931–22941). In the same assay RGS4 produced 3–5 fold higher ECL signal compared to RGS4C2V, when the same amounts of the corresponding plasmids were added to the reaction mixtures (Table 2).

Test [2] concerns N-end rule pathway ubiquitylation in reticulocyte lysates. Description: ECL ubiquitylation assay of EST clone proteins, FK2 antibody coated IPR plate. It is filed as biochemical, rabbit. As to the method: The following EST clones in bacteria were obtained: IMAGE ID #, 3446518, 3446518, 3446518, 3914731 (RGS4), 3914731 (RGS4), 3914731 (RGS4) (Incyte, Palo Alto). Bacteria containing EST clones were grown in 2 ml LB with 50 μg/ml Amp, and DNA was isolated using QIAprep Spin Miniprep Kit (Qiagen). DNA yield was 5–20 μg.
Proteins were prepared from the EST clones in transcription-translation reaction mixtures (total volume 12.5 uL) as described in the Materials and Methods except for the addition of 1 μM Ub aldehyde (Calbiochem). Then 1 μl of the reaction product was mixed with 50 μl of BB1 supplemented with 20 mM AMP-PNP, 20 mM N-ethylmaleimide and 2 μg/ml Sulfo-TAG-labeled streptavidin in to each well of an IPR plate coated with FK2 antibody.
As previously reported, RGS4 is a substrate of the N-end rule-dependent ubiquitylation in reticulocyte lysates (Davydov and Varshavsky, 2000, J. Biol. Chem., 275:22931–22941). To determine if the protein produced from clone 3446518 was similarly ubiquitylated through the N-end rule pathway, the ECL ubiquitylation assay was performed in the presence of dipeptide inhibitors Arg-β-Ala (type 1 inhibitor of the N-end rule pathway), or Trp-Ala (type 2 inhibitor of the same pathway). As was shown on FIG. 2, the RGS4 signal was reduced 3–4 fold in the presence of Arg-β-Ala (a type 1 inhibitor of the N-end rule pathway), but not in the presence of Trp-Ala (a type 2 inhibitor of the N-end rule pathway) in agreement with the previous report that RGS4 is a type 1 N-end rule substrate in reticulocyte lysates (Davydov and Varshavsky, 2000, J. Biol. Chem., 275:22931–22941). In contrast, the dipeptides had little effect on the assay signal from clone 3446518 (FIG. 2). Thus, a different pathway of the ubiquitin system mediates ubiquitylation of the protein produced from clone 3446518.

Test [3] concerns tyrosine kinases reported to be the target of each inhibitor. The following applies: read-out: reported IC50 concentration (1× concentration); for the kinase reported to be the target of the inhibitor; cited from earlier work.
A further test concerns the target T1, EphB4 (Mus musculus, UniProt P54761).
T1 construct: specificity data for proteins generated from a library of eighteen full-length clones; host or cells: rabbit reticulocyte lysate, TnT coupled in vitro transcription/translation (cell-free)
T1 sequence (P54761 16-987): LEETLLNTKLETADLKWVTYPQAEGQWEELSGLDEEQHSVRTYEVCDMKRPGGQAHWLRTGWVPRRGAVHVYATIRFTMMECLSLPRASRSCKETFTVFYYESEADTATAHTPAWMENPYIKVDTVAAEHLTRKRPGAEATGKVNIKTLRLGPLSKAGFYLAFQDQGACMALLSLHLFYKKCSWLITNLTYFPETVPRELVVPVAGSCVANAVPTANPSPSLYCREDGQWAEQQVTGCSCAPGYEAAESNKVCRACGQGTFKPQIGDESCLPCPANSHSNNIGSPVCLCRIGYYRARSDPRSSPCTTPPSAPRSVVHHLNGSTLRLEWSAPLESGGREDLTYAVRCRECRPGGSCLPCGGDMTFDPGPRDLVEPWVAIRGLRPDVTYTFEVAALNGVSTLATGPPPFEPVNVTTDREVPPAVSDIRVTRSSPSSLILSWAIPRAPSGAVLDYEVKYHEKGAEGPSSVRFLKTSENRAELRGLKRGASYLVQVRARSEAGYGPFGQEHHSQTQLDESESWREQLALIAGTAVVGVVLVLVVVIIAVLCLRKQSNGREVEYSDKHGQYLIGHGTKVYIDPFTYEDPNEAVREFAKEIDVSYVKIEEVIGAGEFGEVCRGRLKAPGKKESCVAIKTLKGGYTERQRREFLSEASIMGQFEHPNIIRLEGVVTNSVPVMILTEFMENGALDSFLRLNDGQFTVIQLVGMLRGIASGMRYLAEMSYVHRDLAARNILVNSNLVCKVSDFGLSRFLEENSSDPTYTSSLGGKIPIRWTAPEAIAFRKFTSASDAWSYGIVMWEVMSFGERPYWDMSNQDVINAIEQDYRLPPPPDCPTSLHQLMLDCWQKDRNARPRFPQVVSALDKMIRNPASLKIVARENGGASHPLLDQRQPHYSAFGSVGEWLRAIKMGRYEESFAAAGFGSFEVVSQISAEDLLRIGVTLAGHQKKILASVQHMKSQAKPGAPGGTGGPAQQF
Description: Kinase inhibitor profiling, autophosphorylation. In kind it is biochemical. As to the method:
Proteins were produced from DNA plasmids of Mock Luciferase, Promega, tyrosine kinase clone Spleen Tyrosine kinase (SYK, IMAGE ID# 3870426) and Eph receptor-A7 (EphA7, IMAGE ID# 3991628) (Incyte Genomics, CA) and immobilized on streptavidin or avidin coated NPT-IPR plates as described in the Example 7. To promote autophosphorylation in these immobilized and purified proteins, Mn++ ions were added in a 50 μl reaction containing 5 mM MgCl2, 5 mM MnCl2, 100 μM ATP, 25 mM Tris-HCl buffer pH 7.4, 0.05 mM Na3VO4, 0.004% TritonX-100, 2 mM DTT and EDTA-free protease inhibitor (Roche Molecular Biochemicals). This mixture was incubated with shaking at room temperature overnight to allow autophosphorylation. Following this incubation, wells were washed 2 times with TT-buffer and 2 times with water. Following this step, 50 ng Sulfo-TAG labeled anti-phosphotyrosine in buffer containing 25 mM Tris-HCl buffer pH 7.4, 5 mM MgCl2, 0.05 mM Na3VO4, 0.004% TritonX-100, 2 mM DTT and 0.05% IgG in a final volume of 50 μl was added followed by incubation at room temperature for 45 min. The unbound reagents were removed by one time washing with water, and the TAG label was detected in presence of 150 μl IPR assay buffer (0.4 mM Gly—Gly buffer, pH 7.8, 1 mM EDTA, 0.1 M TPA). The ECL signals were measured using an imaging plate reader.
Proteins were produced using 100 ng of plasmid DNA Mock (Luciferase, Promega) or tyrosine kinases (Fert2 IMAGE ID # 4485050, FGFR1 IMAGE ID # 4037899, Fgfr2 IMAGE ID # 2654352, Src IMAGE ID # 3156400, BMX IMAGE ID # 3919253, LCK IMAGE ID # 4191610, Epha7 IMAGE ID # 3991628, Ephb4 IMAGE ID # 4013934, Tek IMAGE ID # 3482498, HCK IMAGE ID # 4778819, BTK IMAGE ID # 4478463, CSK IMAGE ID # 4398416, SYK IMAGE ID # 3870426, FGR IMAGE ID # 4419973, PTK2B IMAGE ID # 4339456, FRK(IMAGE ID # 4515877, Kit IMAGE ID # 2644960, Fgfr-4 IMAGE ID # 4239139, NTRK3 IMAGE ID # 4181574, Kdr IMAGE ID # 4238984, Incyte Genomics, CA) and immobilized on SA or avidin coated NPT-IPR plates as described in previous examples. The unbound components of the translation reaction (including any endogenous kinases) were removed by 3 washes with TT-buffer (25 mM Tris-HCl buffer pH 7.4 and 0.004% Triton), two five minutes washes with high-salt wash buffer (25 mM Tris-HCl buffer pH 7.4, 0.004% Triton, 1M NaCl and 5 mM DTT) and 3 washes with TT-buffer. […] The mixture was incubated at room temperature for 10 mm before starting the kinase reaction by adding 25 μl of 200 μM ATP in buffer A. This mixture was incubated with intermittent shaking at room temperature for 2 hours to overnight to allow (a) phosphorylation of the pEY substrate and (b) autophosphorylation of the immobilized kinases. Autophosphorylation and phosphorylation of the pEY was measured as described in Examples 7 and 8.
The ECL signal in control wells produced by tyrosine kinases was compared to the wells containing inhibitor compounds. The signal produced from Mock was negligible.

Where [4] appears, read: clone 3446518 in the presence of dipeptide inhibitor.
Setting [5] is: clone 3914731 (RGS4) in the presence of dipeptide inhibitor.

`N=C(N)NCCC[C@H](N)C(=O)NCCC(=O)O` [Arg-β-Ala]: in test [1], the “fold reduction of the RGS4 ECL signal in the presence of dipeptide inhibitor” value is 3–4 fold; the “IPR readings, Experiment 1” value is reported as 6224; the “IPR readings, Experiment 2” value is recorded as 6184. Further, in test [2] (RGS4), the “fold reduction of the RGS4 signal in the presence of dipeptide inhibitor” value is 3–4 fold. Also, in test [2] (setting [4]), the “ECL readings, Experiment 1” value is given as 10484; the “ECL readings, Experiment 2” value was found to be 10829; the “ECL readings, Experiment 3” value is on record as 9665. In test [2] (setting [5]), the “ECL readings, Experiment 1” value is given as 15074; the “ECL readings, Experiment 2” value is 15016; the “ECL readings, Experiment 3” value was found to be 14555.
As to `N#C/C(=C\c1ccc(O)c(O)c1)C(=O)c1ccc(O)c(O)c1` [AG-538], the pIC50 in test [3] is 7.22. Moreover, at EphB4, the “Inhibition specificity towards Autophosphorylation at 10X IC50, Ephb4” value is on record as “L (low inhibition (“L”=between 50–75% of the activity remaining))”.
As for `C[C@H](NC(=O)[C@@H](N)Cc1c[nH]c2ccccc12)C(=O)O` [Trp-Ala] (H-Trp-Ala-OH), in test [1], the “fold reduction of the RGS4 ECL signal in the presence of dipeptide inhibitor” value is reported as “not”; the “IPR readings, Experiment 1” value is reported as 19196; the “IPR readings, Experiment 2” value is on record as 19268. In addition, in test [2] (setting [4]), the “ECL readings, Experiment 1” value was determined as 11249; the “ECL readings, Experiment 2” value is listed as 11550; the “ECL readings, Experiment 3” value stood at 11464. In test [2] (setting [5]), the “ECL readings, Experiment 1” value was 41229; the “ECL readings, Experiment 2” value came to 40401; the “ECL readings, Experiment 3” value is recorded as 38552.
